Results published in patent US9505765B2, “4-alkoxy/aralkoxy-5-substituted-pyrrolopyrimidine compounds as TAK1 inhibitors in disease treatment” (Confluence Life Sciences Inc., priority 2012, dated 2016).

Columns and labels:
TAK1-TAB1 = TAK1-TAB1 (Homo sapiens (Human), UniProt O43318); assay: TAK1-TAB1 competitive binding assay (LanthaScreen), without pre-incubation; conditions: 10 nM TAK1-TAB1, 100 nM kinase tracer-236, read-out: TAK1-TAB1 Inhibition IC50
Excerpt: TAK1-TAB1 Binding Inhibitory Potency: The ability of candidate compounds to interact with TAK1-TAB1 is quantitated by a competitive binding assay using the LanthaScreen technology developed by Life Technologies. This assay is based on the binding of a proprietary, Alexa Fluor® 647-labeled, ATP-competitive kinase inhibitor (kinase tracer-236) to the TAK1-TAB1 construct in presence of a europium-conjugated antibody, resulting in a FRET (fluorescence resonance energy transfer) signal. Displacement of the kinase tracer by compound results in a lower emission ratio upon excitation of the europium chelate. Candidate compounds are designed as potential irreversible inhibitors of TAK1-TAB1, capable of ligating to an active site cysteine residue. The time dependent nature of irreversible inhibition is investigated by performing the binding assay with and without a pre-incubation of compound and TAK1-TAB1.
The inhibitory potency of candidate compounds is measured in 20 mM HEPES pH 7.5, 10 mM MgCl2, 0.01% BSA, 0.0005% Tween-20, and 2% DMSO in the presence of 10 nM TAK1-TAB1, 2 nM Eu-anti-his antibody, and 100 nM kinase tracer-236 using a 384-well plate format. Background signal is defined in the absence of TAK1-TAB1 and uninhibited signal is defined in the presence of vehicle (2% DMSO) alone. Compounds were evaluated in an 11 point dose-response ranging from 20 μM to 0.34 nM. The binding assays are performed under two conditions to evaluate time dependence of inhibition. For the pre-incubation assay, TAK1-TAB1 and Eu-anti-his antibody are preincubated with compound or vehicle for two hours prior to the addition of kinase tracer. The non-preincubated assay is run in which TAK1-TAB1 and Eu-anti-his antibody are added to a mixture of compound and kinase tracer. IC50 values of compounds are determined using a 4 parameter logistical fit of emission ratio as a function of the concentration of compound.
Compounds were tested in accordance with the above described assay, without pre-incubation, yielding the values described below: […]

A549 cells = assay: IL-1β stimulated IL-6 Production in A549 cells; format: cell-based; conditions: Homo sapiens, 1 ng/ml rhIL1β, 18 hrs; for IC50: read-out: IL-6 Production IC; for activity at 5 µM: 5 μM compound, read-out: IL-6 Production % Control 5 μM; for activity at 50 µM: 50 μM compound, read-out: IL-6 Production % Control 50 μM
Experimental: IL-1β stimulated IL-6 Production in A549 cells: The cellular efficacy of compound candidates is determined using the human lung epithelial cell line A549 (ATCC #CCL-185), based upon the methods of Wheeler et al. (2004) J. Nutrition 134, 1039-1044, and Eda et al. (2011) Cell Biol. Int. 35, 355-358. A549 cells produce a number of cytokines (IL6, IL8 and TNFα) in response to stimulation with IL1β. To induce the production of inflammatory mediators, A549 cells are plated at a final concentration of 3×10^5 cells/well of a 96 well flat bottom plate in F12-K medium supplemented with 10% fetal bovine serum, 100 units/ml penicillin and 100 μg/ml streptomycin (Gibco BRL Life Technologies). Cells are treated with or without inhibitors for 3 hrs then stimulated with 1 ng/ml rhIL1β (R & D Systems) for an additional 18 hrs at 37° C. with 5% CO2. The supernatants are removed and stored at −20° C. until they are to be assayed. The levels of inflammatory mediators are determined using commercial MSD cytokine kits (Meso Scale Discovery) as per the manufacturer's instructions. Standard curves are based on 7 steps of 4× serial dilutions, with a wide dynamic range of 10000 pg/ml to 2.4 pg/ml, and the blank in triplicate. Lower limit of detection (LLOD) is calculated at the commonly used 3× the standard deviation of the blank.
Compounds were tested in accordance with the above described assay, yielding the values described below: […]

Chain of TAK1-TAB1 (O43318 other isoform, or with tags, fused parts or gaps): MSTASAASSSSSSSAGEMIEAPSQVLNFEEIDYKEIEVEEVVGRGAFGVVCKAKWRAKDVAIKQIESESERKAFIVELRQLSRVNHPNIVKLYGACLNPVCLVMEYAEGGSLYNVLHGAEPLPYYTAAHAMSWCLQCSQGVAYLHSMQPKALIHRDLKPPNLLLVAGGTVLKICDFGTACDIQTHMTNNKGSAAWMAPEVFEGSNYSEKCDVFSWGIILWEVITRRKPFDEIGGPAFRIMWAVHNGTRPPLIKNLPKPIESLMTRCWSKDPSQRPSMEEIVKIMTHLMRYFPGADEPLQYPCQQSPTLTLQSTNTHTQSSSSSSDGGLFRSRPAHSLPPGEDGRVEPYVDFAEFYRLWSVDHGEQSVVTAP

Row | Structure (SMILES) | IC50 (TAK1-TAB1) [nM] | IC50 (A549 cells) [nM] | activity at 5 µM (A549 cells) [%] | activity at 50 µM (A549 cells) [%]
1 | CC(C)COc1ncnc2[nH]cc(/C=C/C(=O)NC[C@@H](C)O)c12 [Example 183, (R,E)-N-(2-hydroxypropyl)-3-(4-isobutoxy-7H-pyrrolo[2,3-d]pyrimidin-5-yl)acrylamide] | 2500 | 12000 | 78 | 1
2 | CC(C)(C)COc1ncnc2[nH]cc(/C=C/C(N)=O)c12 [Example 192, (E)-3-(4-(neopentyloxy)-7H-pyrrolo[2,3-d]pyrimidin-5-yl)acrylamide] | 5.2 | 78 | 0 | 0
3 | CC(C)Oc1ncnc2[nH]cc(/C=C/C(N)=O)c12 [Example 188, (E)-3-(4-isopropoxy-7H-pyrrolo[2,3-d]pyrimidin-5-yl)acrylamide] | 4.4 | 170 | 0 | 0
4 | CCCOc1ncnc2[nH]cc(/C=C/C(N)=O)c12 [Example 189, (E)-3-(4-propoxy-7H-pyrrolo[2,3-d]pyrimidin-5-yl)acrylamide] | 19 | 180 | 0 | 0
5 | N#C/C=C/c1c[nH]c2ncnc(OCc3ccccc3)c12 [Example 93, (E)-3-(4-benzyloxy-7H-pyrrolo[2,3-d]pyrimidin-5-yl)-acrylonitrile] |  | 2200 | 21 | 15
6 | NC(=O)/C=C/c1c[nH]c2ncnc(OCc3cccc(F)c3)c12 [Example 194, (E)-3-(4-((3-fluorobenzyl)oxy)-7H-pyrrolo[2,3-d]pyrimidin-5-yl)acrylamide] |  | 43 | 1 | 1
7 | C=C(C#N)c1c[nH]c2ncnc(OCC(C)C)c12 [Example 197, 2-(4-isobutoxy-7H-pyrrolo[2,3-d]pyrimidin-5-yl)acrylonitrile] | 750 |  | 128 | 75
8 | NC(=O)/C=C/c1c[nH]c2ncnc(OC3CCC(F)(F)CC3)c12 [Example 199, 3-[4-(4,4-difluoro-cyclohexyloxy)-7H-pyrrolo[2,3-c]pyrimidin-5-yl]-acrylamide] | 16 | 180 | 0 | 0
9 | CC(C)COc1ncnc2[nH]cc(/C=C/C(=O)NC3CC3)c12 [Example 181, (E)-N-cyclopropyl-3-(4-isobutoxy-7H-pyrrolo[2,3-d]pyrimidin-5-yl)acrylamide] | 180 | 180 | 1 | 0
10 | CC(C)COc1ncnc2[nH]cc(C(=O)CCl)c12 [Example 23, 2-chloro-1-(4-isobutoxy-7H-pyrrolo[2,3-d]pyrimidin-5-yl)ethanone] | 280 | 12000 | 117 | 0
11 | COC(=O)/C=C/c1c[nH]c2ncnc(OCc3ccccc3)c12 [Example 201, (E)-3-(4-benzyloxy-7H-pyrrolo[2,3-d]pyrimidin-5-yl)-acrylic acid methylester] | 350 | 800 | 26 | 1
12 | CCC(C)Oc1ncnc2[nH]cc(/C=C/C(N)=O)c12 (stereo not drawn) [Example 187, (E)-3-(4-(sec-butoxy)-7H-pyrrolo[2,3-d]pyrimidin-5-yl)acrylamide] | 4.3 | 190 | 0 | 0
13 | CC(C)COc1ncnc2[nH]cc(/C=C/C(=O)O)c12 [Example 178, (E)-3-(4-isobutoxy-7H-pyrrolo[2,3-d]pyrimidin-5-yl)acrylic acid] | 340 |  | 68 | 1
14 | NC(=O)/C=C/c1c[nH]c2ncnc(OCC(F)(F)F)c12 [Example 191, (E)-3-(4-(2,2,2-trifluoroethoxy)-7H-pyrrolo[2,3-d]pyrimidin-5-yl)acrylamide] | 33 | 150 | 0 | 0
15 | CCC(=O)/C=C/c1c[nH]c2ncnc(OCC(C)C)c12 [Example 175, (E)-1-(4-isobutoxy-7H-pyrrolo[2,3-d]pyrimidin-5-yl)pent-1-en-3-one] | 200 | 990 | 3 | 0
16 | CC(C)(O)COc1ncnc2[nH]cc(/C=C/C(N)=O)c12 [Example 193, (E)-3-(4-(2-hydroxy-2-methylpropoxy)-7H-pyrrolo[2,3-d]pyrimidin-5-yl)acrylamide] | 75 | 1200 | 22 | 0
17 | CC(C)COc1ncnc2[nH]cc(C/C=C/C(N)=O)c12 [Example 198, 4-(4-isobutoxy-7H-pyrrolo[2,3-d]pyrimidin-5-yl)-but-2-enoic acid amide] | 420 | 8400 | 4 | 0
18 | CC(C)COc1ncnc2[nH]cc(/C=C/C(N)=O)c12 [Example 38, (E)-3-(4-isobutoxy-7H-pyrrolo[2,3-d]pyrimidin-5-yl)acrylamide] | 3.1 | 85 | 0 | 0
19 | CC(C)COc1ncnc2[nH]cc(C#CC(N)=O)c12 [Example 186, 3-(4-isobutoxy-7H-pyrrolo[2,3-d]pyrimidin-5-yl)propiolamide] |  | 850 | 1 | 0
20 | CC(C)COc1ncnc2[nH]cc(/C=C/C#N)c12 [Example 35, (E)-3-(4-isobutoxy-7H-pyrrolo[2,3-d]pyrimidin-5-yl)acrylonitrile] | 210 |  |  | 
21 | CC(C)COc1ncnc2[nH]cc(/C=C/C(=O)NCC3CC3)c12 [Example 180, (E)-N-(cyclopropylmethyl)-3-(4-isobutoxy-7H-pyrrolo[2,3-d]pyrimidin-5-yl)acrylamide] | 380 | 630 | 2 | 0
22 | CCNC(=O)/C=C/c1c[nH]c2ncnc(OCC(C)C)c12 [Example 179, (E)-N-ethyl-3-(4-isobutoxy-7H-pyrrolo[2,3-d]pyrimidin-5-yl)acrylamide] | 340 | 87 | 0 | 0
23 | COC(=O)/C(C)=C/c1c[nH]c2ncnc(OCC(C)C)c12 [Example 177, (E)-methyl 3-(4-isobutoxy-7H-pyrrolo[2,3-d]pyrimidin-5-yl)-2-methylacrylate] |  | 620 | 0 | 0
24 | CC(C)(C)Oc1ncnc2[nH]cc(/C=C/C(N)=O)c12 [Example 195, (E)-3-(4-(tert-butoxy)-7H-pyrrolo[2,3-d]pyrimidin-5-yl)acrylamide] | 13 | 920 | 19 | 1
25 | NC(=O)/C=C/c1c[nH]c2ncnc(Oc3ccccc3)c12 [Example 190, (E)-3-(4-phenoxy-7H-pyrrolo[2,3-d]pyrimidin-5-yl)acrylamide] | 170 | 1000 | 15 | 0
26 | CC(C)COc1ncnc2[nH]cc(/C=C\C#N)c12 [Example 36, (Z)-3-(4-isobutoxy-7H-pyrrolo[2,3-d]pyrimidin-5-yl)acrylonitrile] | 170 |  |  | 
27 | CC(=O)/C=C/c1c[nH]c2ncnc(OCC(C)C)c12 [Example 37, (E)-4-(4-isobutoxy-7H-pyrrolo[2,3-d]pyrimidin-5-yl)but-3-en-2-one] | 100 |  |  | 
